The values below come from patent US12209085B2, “RET inhibitors, pharmaceutical compositions and uses thereof” (SUNSHINE LAKE PHARMA CO., LTD., priority 2018, dated 2025).

The structures appear in SMILES notation.

Usually IC50 stands for the concentration needed to halve the response being measured. A low value points to higher potency.

The target of test [1] is Ret wt (Homo sapiens (Human), UniProt P07949). Briefly: HTRF kinase inhibition assay, Ret wt. The format is biochemical. The following applies: HTRF method. An excerpt: (§1) • 1. […] 1) • 18) Echo (Labcyte, 550) • 3.
Sequence of Ret wt (P07949 29-1114): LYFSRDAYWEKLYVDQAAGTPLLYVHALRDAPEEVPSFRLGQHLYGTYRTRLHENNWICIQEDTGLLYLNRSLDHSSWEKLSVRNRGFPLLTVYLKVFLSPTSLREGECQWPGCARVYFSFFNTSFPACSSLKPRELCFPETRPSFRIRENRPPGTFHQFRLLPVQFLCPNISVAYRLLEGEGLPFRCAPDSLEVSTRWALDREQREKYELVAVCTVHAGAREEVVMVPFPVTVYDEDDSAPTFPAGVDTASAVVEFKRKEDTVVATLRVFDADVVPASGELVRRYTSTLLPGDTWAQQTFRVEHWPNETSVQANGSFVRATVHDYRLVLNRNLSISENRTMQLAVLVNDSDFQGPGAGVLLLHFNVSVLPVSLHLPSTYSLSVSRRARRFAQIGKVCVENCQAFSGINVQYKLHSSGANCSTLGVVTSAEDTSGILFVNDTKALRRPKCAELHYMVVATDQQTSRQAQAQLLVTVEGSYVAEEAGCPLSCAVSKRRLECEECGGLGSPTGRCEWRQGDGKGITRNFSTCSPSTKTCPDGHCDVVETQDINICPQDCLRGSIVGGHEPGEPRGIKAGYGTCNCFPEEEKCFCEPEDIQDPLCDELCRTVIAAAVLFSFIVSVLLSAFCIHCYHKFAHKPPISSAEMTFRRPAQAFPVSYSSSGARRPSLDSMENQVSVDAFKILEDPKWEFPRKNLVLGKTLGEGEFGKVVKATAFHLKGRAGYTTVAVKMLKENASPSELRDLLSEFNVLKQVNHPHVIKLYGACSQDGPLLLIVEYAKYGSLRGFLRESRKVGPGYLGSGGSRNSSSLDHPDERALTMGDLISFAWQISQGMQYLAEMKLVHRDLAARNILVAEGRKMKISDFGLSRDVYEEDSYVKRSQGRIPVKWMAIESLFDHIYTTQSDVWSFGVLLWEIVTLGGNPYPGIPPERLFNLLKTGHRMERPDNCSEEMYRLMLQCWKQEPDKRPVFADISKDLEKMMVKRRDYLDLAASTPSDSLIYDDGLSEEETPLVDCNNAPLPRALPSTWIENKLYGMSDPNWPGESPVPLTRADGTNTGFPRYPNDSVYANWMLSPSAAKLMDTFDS
(§2) [formula] • Ratiopositive control: average of CEP-32496 readings in all positive control wells • Rationegative control: average of DMSO readings in all negative control wells • Wherein, the chemical name of CEP-32496 is: N-[3-[(6,7-dimethoxy-4-quinazolinyl)oxy]phenyl]-N′-[5-(2,2,2-trifluoro-1,1-dimethylethyl)-3-isoxazolyl]urea. • 4.3 Calculation of the IC50 and Drawing of the inhibition curve of the compound: • The IC50 (half inhibitory concentration) of the compound was obtained using the following non-linear fitting formula: Data analysis was performed using Graphpad 6.0 software. Y=Bottom+(Top−Bottom)/(1+10^((Log IC50−X)*Hill Slope)) • X: compound concentration log value Y: inhibition, % • 5.

Test [2] addresses Ret V804M (Homo sapiens (Human), UniProt P07949, V804M). Briefly: HTRF kinase inhibition assay, Ret V804M. In kind it is biochemical. The following applies: HTRF method.
Excerpt: as §1, §2
(TR-FRET usually uses a lanthanide donor and a delayed reading to cut background.)

Sequence of Ret V804M (P07949 29-1114 V804M): as the sequence (P07949 29-1114) above, with V776M counted along it

In the case of `C#Cc1ccc(C(=O)N2CCN(c3ccc(-c4cc(-c5cnn(C)c5)cn5ncc(C#N)c45)cn3)CC2)nc1` [Example 237, 4-(6-(4-(5-ethynylpicolinoyl)piperazin-1-yl)pyridin-3-yl)-6-(1-methyl-1H-pyrazol-4-yl)pyrazolo[1,5-a]pyridine-3-carbonitrile], the IC50 in test [1] stood at 0.39 nM; in test [2], 2.06 nM.

For `Cn1cc(-c2cc(-c3ccc(N4CCN(CC#Cc5cccnc5F)CC4)nc3)c3c(C#N)cnn3c2)cn1` [Example 255, 4-[6-[4-[3-(2-fluoro-3-pyridyl)prop-2-ynyl]piperazin-1-yl]-3-pyridyl]-6-(1-methylpyrazol-4-yl)pyrazolo[1,5-a]pyridine-3-carbonitrile], the values for the IC50 in test [1] and in test [2] were 0.57 nM and 4.11 nM, respectively.

As to `Cn1cc(-c2cc(-c3ccc(N4CC5CC(C4)N5CC#Cc4ccccc4)nc3)c3c(C#N)cnn3c2)cn1` [Example 250, 6-(1-methyl-1H-pyrazol-4-yl)-4-(6-(6-(3-phenylprop-2-yn-1-yl)-3,6-diazabicyclo[3.1.1]heptanpyridin-3-yl)pyridin-3-yl)pyrazolo[1,5-a]pyridine-3-carbonitrile], the IC50 worked out at 0.14 nM in test [1] and 0.88 nM in test [2].

Turning to `COc1cncc(C#CCN2CCN(c3ccc(-c4cc(-c5cnn(C)c5)cn5ncc(C#N)c45)cn3)CC2)c1` [Example 254, 4-(6-(4-(3-(5-methoxypyridin-3-yl)prop-2-yn-1-yl)piperazin-1-yl)pyridin-3-yl)-6-(1-methyl-1H-pyrazol-4-yl)pyrazolo[1,5-a]pyridine-3-carbonitrile], the IC50 in test [1] stood at 3.57 nM; in test [2], 18.3 nM.

Turning to `Cn1cc(-c2cc(-c3ccc(N4CCN(CC#Cc5ccccc5)CC4)nc3)c3c(C#N)cnn3c2)cn1` [Example 253, 6-(1-methyl-1H-pyrazol-4-yl)-4-(6-(4-(3-phenylprop-2-yn-1-yl)piperazin-1-yl)pyridine-3-yl)pyrazolo[1,5-a]pyridine-3-carbonitrile], the values for the IC50 in test [1] and in test [2] were 0.91 nM and 5.47 nM, respectively.

In test [1], `Cn1cc(-c2cc(-c3ccc(N4CC5CC(C4)N5CC#Cc4ccc(C(F)(F)F)cc4)nc3)c3c(C#N)cnn3c2)cn1` [Example 242, 6-(1-methyl-1H-pyrazol-4-yl)-4-(6-(6-(3-(4-(trifluoromethyl)phenyl)prop-2-yn-1-yl)-3,6-diazabicyclo[3.1.1]heptan-3-yl)pyridin-3-yl)pyrazolo[1,5-a]pyridine-3-carbonitrile] had an IC50 of 1.72 nM.

As to `Cn1cc(-c2cc(-c3ccc(N4CC5CC(C4)N5CC#Cc4cccnc4F)nc3)c3c(C#N)cnn3c2)cn1` [Example 256, 4-[6-[6-[3-(2-fluoro-3-pyridyl)prop-2-ynyl]-3,6-diazabicyclo[3.1.1]heptan-3-yl]3-pyridyl]-6-(1-methylpyrazol-4-yl)pyrazolo[1,5-a]pyridine-3-carbonitrile], the IC50 in test [1] was determined as 0.14 nM; in test [2] it was 0.44 nM.

As for `C#CC(=O)N1CCN(c2ccc(-c3cc(-c4cnn(C)c4)cn4ncc(C#N)c34)cn2)CC1` [Example 5], the IC50 in test [1] stood at 0.39 nM; in test [2], 8.2 nM.

`Cn1cc(-c2cc(-c3ccc(N4CCN(CC#Cc5ccncc5)CC4)nc3)c3c(C#N)cnn3c2)cn1` [Example 263, 6-(1-methyl-1H-pyrazol-4-yl)-4-(6-(4-(3-(pyridin-4-yl)prop-2-yn-1-yl)piperazin-1-yl)pyridine-3-yl)pyrazolo[1,5-a]pyridine-3-carbonitrile]: the IC50 was 2.5 nM in test [1] and 31.4 nM in test [2].

As for `C#Cc1ccc(CN2CCN(c3ccc(-c4cc(-c5cnn(C)c5)cn5ncc(C#N)c45)cn3)CC2)nc1` [Example 225], the IC50 in test [1] stood at 0.39 nM; in test [2] it was 2.22 nM.

As for `C#Cc1ccc(C(=O)N2C3CC2CN(c2ccc(-c4cc(-c5cnn(C)c5)cn5ncc(C#N)c45)cn2)C3)cc1F` [Example 232, 4-(6-(6-(4-ethynyl-3-fluorobenzoyl)-3,6-diazabicyclo[3.1.1]heptan-3-yl)pyridin-3-yl)-6-(1-methyl-1H-pyrazol-4-yl)pyrazolo[1,5-a]pyridine-3-carbonitrile], the IC50 in test [1] amounted to 0.37 nM; in test [2], 1.79 nM.

Take `C#Cc1cccc(CN2CCN(c3ccc(-c4cc(-c5cnn(C)c5)cn5ncc(C#N)c45)cn3)CC2)c1F` [Example 224, 4-(6-(4-(3-ethynyl-2-fluorobenzyl)piperazin-1-yl)pyridin-3-yl)-6-(1-methyl-1H-pyrazol-4-yl)pyrazolo[1,5-a]pyridine-3-carbonitrile]: the half-inhibitory concentration (IC50) in test [1] was found to be 0.57 nM; in test [2] it was 21 nM.

On to `C#Cc1cc(C(=O)N2C3CC2CN(c2ccc(-c4cc(-c5cnn(C)c5)cn5ncc(C#N)c45)cn2)C3)ccc1F` [Example 233, 4-(6-(6-(3-ethynyl-4-fluorobenzoyl)-3,6-diazabicyclo[3.1.1]heptan-3-yl)pyridin-3-yl)-6-(1-methyl-1H-pyrazol-4-yl)pyrazolo[1,5-a]pyridine-3-carbonitrile], for which the IC50 turned out to be 0.5 nM in test [1] and 8.92 nM in test [2].

Take `Cn1cc(-c2cc(-c3ccc(N4CCN(CC#Cc5ccc(C(F)(F)F)cc5)CC4)nc3)c3c(C#N)cnn3c2)cn1` [Example 246, 6-(1-methyl-1H-pyrazol-4-yl)-4-(6-(4-(3-(4-(trifluoromethyl)phenyl)prop-2-yn-1-yl)piperazine-1-yl)pyridin-3-yl)pyrazolo[1,5-a]pyridine-3-carbonitrile]: the IC50 in test [1] is 7.06 nM; in test [2], 198 nM.

For `C#Cc1cccc(CN2C3CC2CN(c2ccc(-c4cc(-c5cnn(C)c5)cn5ncc(C#N)c45)cn2)C3)c1F` [Example 218, 4-(6-(6-(3-ethynyl-2-fluorobenzyl)-3,6-diazabicyclo[3.1.1]heptan-3-yl)pyridin-3-yl)-6-(1-methyl-1H-pyrazol-4-yl)pyrazolo[1,5-a]pyridine-3-carbonitrile], the IC50 in test [1] is 0.52 nM.

As to `C#Cc1cncc(CN2C3CC2CN(c2ccc(-c4cc(-c5cnn(C)c5)cn5ncc(C#N)c45)cn2)C3)c1` [Example 187, 4-(6-(6-((5-ethynylpyridin-3-yl)methyl)-3,6-diazabicyclo[3.1.1]heptan-3-yl)pyridin-3-yl)-6-(1-methyl-1H-pyrazol-4-yl)pyrazolo[1,5-a]pyridine-3-carbonitrile], the IC50 in test [1] came out at 0.28 nM. This IC50 lies about 1.9-fold lower than the previous one.

In turn, `C#Cc1cccc(C(C)N2C3CC2CN(c2ccc(-c4cc(-c5cnn(C)c5)cn5ncc(C#N)c45)cn2)C3)n1` (centres unmarked) [Example 219, 4-(6-(6-(1-(6-ethynylpyridin-2-yl)ethyl)-3,6-diazabicyclo[3.1.1]heptan-3-yl)pyridin-3-yl)-6-(1-methyl-1H-pyrazol-4-yl)pyrazolo[1,5-a]pyridine-3-carbonitrile] registered an IC50 in test [1] of 2.9 nM. Against the preceding compound, the IC50 is about 10-fold higher.

On to `C#Cc1cc(CN2C3CC2CN(c2ccc(-c4cc(-c5cnn(C)c5)cn5ncc(C#N)c45)cn2)C3)ccc1F` [Example 220, 4-(6-(3-(3-ethynyl-4-fluorobenzyl)-3,6-diazabicyclo[3.1.1]hept-3-yl)pyridin-3-yl)-6-(1-methyl-1H-pyrazol-4-yl)pyrazolo[1,5-a]pyridine-3-carbonitrile], for which the IC50 in test [1] turned out to be 0.22 nM.

In test [1], `C#Cc1cccc(C(=O)N2CCC3(CCN(c4ccc(-c5cc(-c6cnn(C)c6)cn6ncc(C#N)c56)cn4)CC3)C2)c1` [Example 229, 4-(6-(2-(3-ethynyl)-2,8-diazaspiro[4.5]dec-8-yl)pyridin-3-yl)-6-(1-methyl-1H-pyrazol-4-yl)pyrazolo[1,5-a]pyridine-3-carbonitrile] registered an IC50 of 25.1 nM.

For the compound `C#Cc1ccc(C(=O)NC2(C)CCN(c3ccc(-c4cc(-c5cnn(C)c5)cn5ncc(C#N)c45)cn3)CC2)cc1` [Example 2, N-(1-(5-(3-cyano-6-(1-methyl-1H-pyrazol-4-yl)pyrazolo[1,5-a]pyridin-4-yl)pyridin-2-yl)-4-methyl-piperidin-4-yl)-4-ethynylbenzamide], it took 0.35 nM to reach half-maximal inhibition in test [1] (IC50).

In the case of `C#CCN1C2CC1CN(c1ccc(-c3cc(-c4cnn(C)c4)cn4ncc(C#N)c34)cn1)C2` [Example 195, 6-(1-methyl-1H-pyrazol-4-yl)-4-(6-(6-(prop-2-yn-1-yl)-3,6-diazabicyclo[3.1.1]heptan-3-yl)pyridin-3-yl)pyrazolo[1,5-a]pyridine-3-carbonitrile], in test [1], the IC50 came to 0.29 nM.

Regarding `Cn1cc(-c2cc(-c3ccc(N4CC5(CCN(C(=O)C#Cc6ccccc6)CC5)C4)nc3)c3c(C#N)cnn3c2)cn1` [Example 269, 6-(1-methyl-1H-pyrazol-4-yl)-4-(6-(7-(3-phenylpropioloyl)-2,7-diazaspiro[3.5]nonan-2-yl)pyridin-3-yl)pyrazolo[1,5-a]pyridine-3-carbonitrile], the midpoint of inhibition in test [1], the IC50, lay at 27 nM.

As for `C#Cc1ccc(C(=O)N2C3CC2CN(c2ccc(-c4cc(-c5cnn(C)c5)cn5ncc(C#N)c45)cn2)C3)cc1` [Example 230, 4-(6-(6-(4-ethynyl)-3,6-diazabicyclo[3.1.1]heptan-3-yl)pyridin-3-yl)-6-(1-methyl-1H-pyrazol-4-yl)pyrazolo[1,5-a]pyridine-3-carbonitrile], inhibition in test [1] was half-maximal at 1.05 nM (IC50).

For the compound `C#Cc1cc(CN2C3CC2CN(c2ccc(-c4cc(-c5cnn(C)c5)cn5ncc(C#N)c45)cn2)C3)ccn1` [Example 217, 4-(6-(6-((2-ethynylpyridin-4-yl)methyl)-3,6-diazabicyclo[3.1.1]heptan-3-yl)pyridin-3-yl)-6-(1-methyl-1H-pyrazol-4-yl)pyrazolo[1,5-a]pyridine-3-carbonitrile], the midpoint of inhibition in test [1], the IC50, lay at 0.35 nM.

Compound `C#Cc1cccc(C(=O)N2C3CC2CN(c2ccc(-c4cc(-c5cnn(C)c5)cn5ncc(C#N)c45)cn2)C3)c1` [Example 231, 4-(6-(6-(3-ethynyl)-3,6-diazabicyclo[3.1.1]heptan-3-yl)pyridin-3-yl)-6-(1-methyl-1H-pyrazol-4-yl)pyrazolo[1,5-a]pyridine-3-carbonitrile] came in with an IC50 in test [1] of 3.75 nM.
